Experimental data reported in ChEMBL document CHEMBL1201862, “PubChem BioAssay data set” (2004).
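48-hour exposure; five concentrations; linearly interpolated endpoints. At the GI50, growth is halved.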 The source made the active and inactive calls. Rule as the data show it: active = GI50 up to about 1.1 µM and inactive = higher.

Assays:
Experiment in all cases: DTP human tumour cell line panel, 48 h
NCI/ADR-RES = tested on: NCI/ADR-RES
UACC-62 = tested on: UACC-62
K562 = tested on: K562
ACHN = tested on: ACHN
HCT-116 = tested on: HCT-116
SK-MEL-2 = tested on: SK-MEL-2
MDA-MB-231 = tested on: MDA-MB-231
BT-549 = tested on: BT-549
SF-539 = tested on: SF-539
HCC 2998 = tested on: HCC 2998
Hs-578T = tested on: Hs-578T
IGROV-1 = tested on: IGROV-1
OVCAR-5 = tested on: OVCAR-5
SW-620 = tested on: SW-620
NCI-H23 = tested on: NCI-H23
RXF 393 = tested on: RXF 393
PC-3 = tested on: PC-3

| SMILES | GI50 (NCI/ADR-RES) | GI50 (UACC-62) | GI50 (K562) | GI50 (ACHN) | GI50 (HCT-116) | GI50 (SK-MEL-2) | GI50 (MDA-MB-231) | GI50 (BT-549) | GI50 (SF-539) | GI50 (HCC 2998) | GI50 (Hs-578T) | GI50 (IGROV-1) | GI50 (OVCAR-5) | GI50 (SW-620) | GI50 (NCI-H23) | GI50 (RXF 393) | GI50 (PC-3) |
| --- | --- | --- | --- | --- | --- | --- | --- | --- | --- | --- | --- | --- | --- | --- | --- | --- | --- |
| CC(C)c1ccc2c(c1)[C@@]1(C)CC[C@H](C)C(C)(C)C1CC2 (stereo partly drawn) | 18.2 µM (inactive) | 16.2 µM (inactive) | 32.2 µM (inactive) | 18.6 µM (inactive) | 18.4 µM (inactive) | 26.4 µM (inactive) | 19.5 µM (inactive) | 20.6 µM (inactive) | 23.4 µM (inactive) | 20.9 µM (inactive) | 24 µM (inactive) | 51.8 µM (inactive) | 24.4 µM (inactive) | 47.8 µM (inactive) | 18.8 µM (inactive) | 17.5 µM (inactive) |  |
| COc1cc2c(c(N)c1OC)C(=O)/C(=C/c1cc(C)c(O)c(C)c1)C2 | 0.0104 µM (active) | < 0.01 µM (active) | < 0.01 µM (active) |  | < 0.01 µM (active) |  | 0.0141 µM (active) | 9.68 µM (inactive) | < 0.01 µM (active) | 1.95 µM (inactive) |  | 0.0367 µM (active) | 0.693 µM (active) | < 0.01 µM (active) | < 0.01 µM (active) | 0.0323 µM (active) | < 0.01 µM (active) |
| CC12CC(=O)C3C(C(=O)C1)C32C (stereo not drawn) | > 100 µM (inactive) | > 100 µM (inactive) | > 100 µM (inactive) | > 100 µM (inactive) | > 100 µM (inactive) | > 100 µM (inactive) | > 100 µM (inactive) | > 100 µM (inactive) | > 100 µM (inactive) | > 100 µM (inactive) |  | > 100 µM (inactive) | > 100 µM (inactive) | > 100 µM (inactive) | > 100 µM (inactive) | > 100 µM (inactive) | > 100 µM (inactive) |
| NC(=O)/N=C(\N)NC(=O)c1ccccc1 | > 100 µM (inactive) | > 100 µM (inactive) | > 100 µM (inactive) | > 100 µM (inactive) | > 100 µM (inactive) | > 100 µM (inactive) | > 100 µM (inactive) | > 100 µM (inactive) |  | > 100 µM (inactive) |  | > 100 µM (inactive) | > 100 µM (inactive) | > 100 µM (inactive) | > 100 µM (inactive) | > 100 µM (inactive) | > 100 µM (inactive) |
| CCOC(=O)c1csc(NC(=O)CN2CCN(c3ccccc3)CC2)n1 | > 100 µM (inactive) | > 100 µM (inactive) | > 100 µM (inactive) | > 100 µM (inactive) |  | > 100 µM (inactive) | > 100 µM (inactive) |  |  | > 100 µM (inactive) |  | 85.9 µM (inactive) | > 100 µM (inactive) | > 100 µM (inactive) | > 100 µM (inactive) | > 100 µM (inactive) | > 100 µM (inactive) |
| COc1ccc(NC(=S)N/N=C\c2ccc(NC(C)=O)cc2)cc1 |  | > 100 µM (inactive) |  | > 100 µM (inactive) | > 100 µM (inactive) | > 100 µM (inactive) | > 100 µM (inactive) | > 100 µM (inactive) |  | > 100 µM (inactive) | > 100 µM (inactive) | > 100 µM (inactive) | > 100 µM (inactive) | > 100 µM (inactive) | > 100 µM (inactive) |  | > 100 µM (inactive) |
| CC(O[Si](c1ccccc1)(c1ccccc1)C(C)(C)C)[C@H](NC(=O)OC(C)(C)C)C(=O)O (stereo partly drawn) | 46.7 µM (inactive) |  | 46.6 µM (inactive) | 30.8 µM (inactive) | 34.2 µM (inactive) |  |  |  |  | 36.2 µM (inactive) | 57.1 µM (inactive) | 20.6 µM (inactive) | 75.3 µM (inactive) | 29.4 µM (inactive) | 33 µM (inactive) | 35 µM (inactive) | 26.6 µM (inactive) |
| COc1ccc2nc3c([N+](=O)[O-])ccc(NCCCN(C)C)c3c(N)c2c1 | 1.64 µM (inactive) | 1.82 µM (inactive) | 0.41 µM (active) | 1.14 µM (inactive) | 0.316 µM (active) | 2.39 µM (inactive) | 1.28 µM (inactive) |  | 1.78 µM (inactive) |  | 2.78 µM (inactive) | 1.21 µM (inactive) | 1.43 µM (inactive) | 0.405 µM (active) | 1.99 µM (inactive) | 1.29 µM (inactive) | 1.4 µM (inactive) |
| NC1CC(=O)c2c(Br)csc21 (stereo not drawn) | > 100 µM (inactive) | 21.3 µM (inactive) | 50.1 µM (inactive) | 52 µM (inactive) | 46.8 µM (inactive) | 41 µM (inactive) | > 100 µM (inactive) | 33 µM (inactive) | 35.6 µM (inactive) | 19.2 µM (inactive) |  | 33 µM (inactive) | 63.7 µM (inactive) | 30.2 µM (inactive) |  | 54.7 µM (inactive) | 39.3 µM (inactive) |
| CCCCP(CCCC)(CCCC)=C(C(=O)OC)C(C(=O)OC)=C1SC(C(=O)OC)=C(C(=O)OC)S1 | > 10 µM (inactive) | 14.1 µM (inactive) |  | 22.9 µM (inactive) | 12 µM (inactive) | 26.2 µM (inactive) | 17.9 µM (inactive) | 15.7 µM (inactive) |  |  | 18.5 µM (inactive) | 11.6 µM (inactive) | 23 µM (inactive) | 23.4 µM (inactive) | 17.5 µM (inactive) | 10.3 µM (inactive) | 11.1 µM (inactive) |
